Source: patent US20260226084A1, “DUAL RAF AND TUBULIN INHIBITORS AND METHODS OF USE THEREOF” (Deciphera Pharmaceuticals, LLC, priority 2023, published 2026)

Experiments:
MiaPaca-2 cells = experiment: MiaPaca-2 Cell Proliferation Assay; type: cell-based; conditions: Homo sapiens, MIA PaCa-2, MiaPaca-2 cells; Table 2; read-out: Inhibition of cell proliferation in MiaPaca-2 (IC50 class)
Outline: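 Viability was read as resazurin fluorescence (540 nm excitation, 600 nm emission) after 5–6 h with dye. Compounds were tested as serial dilutions in triplicate, with IC50 derived from the dose–response.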

HCT-116 cells = experiment: HCT-116 Cell Proliferation Assay; type: cell-based; conditions: Homo sapiens, HCT-116, HCT-116 cells; Table 2; read-out: Inhibition of cell proliferation in HCT-116 (IC50 class)
Outline: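 HCT-116 cells, 375/well in McCoy's 5A with 10% FBS, exposed to serial compound dilutions in triplicate for 67 to 72 hours at 37 °C. Viability read by resazurin fluorescence (ex 540/em 600 nm) after a further 4 to 5 h; IC50 values calculated.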

HPAF-II cells = experiment: HPAF-II Cell Proliferation Assay; type: cell-based; conditions: Homo sapiens, HPAF-II, HPAF-II cells; Table 2; read-out: Inhibition of cell proliferation in HPAF-II (IC50 class)
Outline: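 HPAF-II cells (750/well) in complete MEM with 10% FBS were exposed to serially diluted compound in triplicate for 115–120 h at 37 °C, 5% CO2. Resazurin was then added for 18–24 h more; fluorescence (ex 540/em 600 nm) gave IC50.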

[1] = target: T1, C-Raf kinase (SEQ ID NO: 2) (Homo sapiens, UniProt P04049, Y340D/Y341D); experiment: Biochemical Assay for C-Raf (coupled pyruvate kinase/lactate dehydrogenase assay); conditions: 1 mM ATP; read-out: CRAF (inhibition of biochemical activity, IC50)
T1 construct: C-Raf residues 306-end; Y340D, Y341D with; GST (N); purchased Sigma

[2] = target: T2, B-Raf kinase (SEQ ID NO: 1) (Homo sapiens, UniProt P15056); experiment: Biochemical Assay for B-Raf (coupled pyruvate kinase/lactate dehydrogenase assay); conditions: 1 mM ATP; read-out: BRAF (inhibition of biochemical activity, IC50)
T2 construct: GST (N); purchased Sigma

Pa16c cells = experiment: Pa16c Cell Proliferation Assay; type: cell-based; conditions: Table 2, read-out: Inhibition of cell proliferation in Pa16c (IC50 class)
Outline: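 Mouse Pa16c cells, 750/well in DMEM with 10% FBS, exposed to serially diluted compound in triplicate for 67 to 72 h at 37° C. Viability read by resazurin reduction over a further 18 to 24 h (ex 540/em 600 nm). IC50 calculated from the dose-response.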

T1 sequence (P04049 307-648 Y340D/Y341D): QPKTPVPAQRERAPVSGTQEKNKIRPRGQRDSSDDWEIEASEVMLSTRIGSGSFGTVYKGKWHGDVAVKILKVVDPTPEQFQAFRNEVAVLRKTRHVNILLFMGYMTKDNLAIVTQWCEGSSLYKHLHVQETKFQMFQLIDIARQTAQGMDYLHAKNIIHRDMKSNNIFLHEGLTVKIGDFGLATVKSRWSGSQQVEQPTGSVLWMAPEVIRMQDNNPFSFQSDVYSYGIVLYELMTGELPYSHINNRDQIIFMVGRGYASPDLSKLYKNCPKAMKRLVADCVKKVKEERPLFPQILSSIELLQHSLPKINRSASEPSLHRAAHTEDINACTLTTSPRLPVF
T2 sequence (P15056 416-766): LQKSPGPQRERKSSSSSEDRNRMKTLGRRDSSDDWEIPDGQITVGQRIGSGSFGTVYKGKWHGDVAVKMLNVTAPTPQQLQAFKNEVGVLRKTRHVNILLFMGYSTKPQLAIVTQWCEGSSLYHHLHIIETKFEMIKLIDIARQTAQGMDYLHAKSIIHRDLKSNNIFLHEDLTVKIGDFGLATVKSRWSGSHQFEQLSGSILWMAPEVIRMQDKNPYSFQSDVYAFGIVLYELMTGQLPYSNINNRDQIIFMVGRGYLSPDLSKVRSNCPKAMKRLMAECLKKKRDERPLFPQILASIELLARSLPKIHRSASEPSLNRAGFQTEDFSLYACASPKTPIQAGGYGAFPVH

Row | IC50 (MiaPaca-2 cells) [nM] | IC50 (HCT-116 cells) [nM] | IC50 [1] [nM] | IC50 [2] [nM] | Structure (SMILES) | IC50 (HPAF-II cells) [nM] | IC50 (Pa16c cells) [nM]
1 | 1000 to 10000 | 1000 to 10000 | 100 to 500 | 500 to 1000 | Cc1ccc(NC(=O)c2cc(N)cnn2)cc1-c1ccnc(-c2ccnc(NC(=O)C3CC3)c2)c1 [Example 99] | 1000 to 10000 | 1000 to 10000
2 | 100 to 500 | < 100 | < 100 | < 100 | Cc1ccc(NC(=O)c2cc(C3CC3)cnn2)cc1-c1cc(NCCO)nc(-c2ccnc(NC(=O)C3CC3)c2)c1 [Example 100] | 100 to 500 | < 100
3 | 100 to 500 | < 100 | < 100 | < 100 | Cc1ccc(NC(=O)c2cc(C(C)(F)F)cnn2)cc1-c1cc(NCCO)nc(-c2ccnc(NC(=O)C3CC3)c2)c1 [Example 101] | 100 to 500 | < 100
4 | 1000 to 10000 | 500 to 1000 | < 100 | < 100 | Cc1ccc(NC(=O)c2cc(C3CC3)cnn2)cc1-c1nc(NCCO)cc(-c2ccnc(NC(=O)C3CC3)c2)n1 [Example 102] | 1000 to 10000 | 1000 to 10000
5 | 500 to 1000 | < 100 | < 100 | < 100 | Cc1ccc(NC(=O)c2cc(C3CC3)cnn2)cc1-c1cc(NCCO)nc(-c2ccnc(NC(=O)C3CC3)c2)n1 [Example 103] | 500 to 1000 | 1000 to 10000
6 | 500 to 1000 | 100 to 500 | < 100 | < 100 | Cc1ccc(NC(=O)c2cc(C3CC3)cnn2)cc1-c1cc(OCCO)nc(-c2ccnc(NC(=O)C3CC3)c2)c1 [Example 104] | 100 to 500 | 100 to 500
7 | 100 to 500 | 100 to 500 | < 100 | < 100 | CNCC(=O)Nc1cc(-c2cc(-c3cc(NC(=O)c4cc(C5CC5)cnn4)ccc3C)ccn2)ccn1 [Example 107] | 100 to 500 | 100 to 500
8 | < 100 | < 100 | < 100 | < 100 | Cc1ccc(NC(=O)c2cc(C(F)(F)F)cnn2)cc1-c1cc(NCCO)nc(-c2ccnc(NC(=O)C3CC3)c2)c1 [Example 113] | < 100 | < 100
9 | < 100 | < 100 | < 100 | < 100 | CNc1cc(-c2cc(NC(=O)c3cc(C(F)(F)F)cnn3)ccc2C)cc(-c2ccnc(NC(=O)C3CC3)c2)n1 [Example 118] | < 100 | < 100

The remaining lines, values behind:

Row | Structure (SMILES) | IC50 (MiaPaca-2 cells) [nM] | IC50 (HCT-116 cells) [nM] | IC50 [1] [nM] | IC50 [2] [nM] | IC50 (HPAF-II cells) [nM] | IC50 (Pa16c cells) [nM]
10 | Cc1ccc(NC(=O)c2cncc(C(C)(C)C#N)c2)cc1-c1ccnc(-c2ccnc(NC(=O)C3CC3)c2)c1 [Example 105] | 100 to 500 | < 100 | < 100 | < 100 | 100 to 500 | 1000 to 10000
11 | Cc1ccc(NC(=O)c2cc(C(F)(F)F)cnn2)cc1-c1ccnc(-c2ccnc(NC(=O)C(F)(F)F)c2)c1 [Example 106] | < 100 | < 100 | < 100 | 100 to 500 | < 100 | < 100
12 | Cc1ccc(NC(=O)c2cncc(C(C)(C)C#N)c2)cc1-c1cncc(-c2ccnc(NC(=O)C3CC3)c2)n1 [Example 108] | 100 to 500 | < 100 | < 100 | < 100 | 100 to 500 | 1000 to 10000
13 | Cc1ccc(NC(=O)c2cncc(C(C)(F)F)c2)cc1-c1cncc(-c2cc(NC(=O)C3CC3)ncn2)c1 [Example 109] | 100 to 500 | < 100 | < 100 | < 100 | 100 to 500 | 1000 to 10000
14 | Cc1ccc(NC(=O)c2cc(C(F)(F)F)cnn2)cc1-c1ccnc(-c2ccnc(NC=O)c2)c1 [Example 110] | < 100 | < 100 | < 100 | < 100 | < 100 | < 100
15 | Cc1ccc(NC(=O)c2cc(P(C)(C)=O)cnn2)cc1-c1ccnc(-c2ccnc(NC(=O)C3CC3)c2)c1 [Example 111] | 1000 to 10000 | 1000 to 10000 | < 100 | < 100 | 1000 to 10000 | 1000 to 10000
16 | CNCC(=O)Nc1cc(-c2cc(-c3cc(NC(=O)c4cc(C(C)(F)F)cnn4)ccc3C)ccn2)ccn1 [Example 112] | 100 to 500 | 100 to 500 | < 100 | < 100 | 100 to 500 | 100 to 500
17 | Cc1ccc(NC(=O)c2cc(C(F)(F)F)cnn2)cc1-c1ccnc(-c2cnn(C)c2)c1 [Example 114] | 100 to 500 | 100 to 500 | < 100 | 100 to 500 | 100 to 500 | 100 to 500
18 | CCn1cc(-c2cc(-c3cc(NC(=O)c4cc(C(F)(F)F)cnn4)ccc3C)ccn2)cn1 [Example 115] | 100 to 500 | 100 to 500 | 100 to 500 | 100 to 500 | 100 to 500 | 100 to 500
19 | Cc1ccc(NC(=O)c2cc(C(F)(F)F)cnn2)cc1-c1cc(OCCO)nc(-c2cn[nH]c2)c1 [Example 116] | < 100 | < 100 | < 100 | < 100 | < 100 | < 100
20 | Cc1ccc(NC(=O)c2cc(C3CC3)cnn2)cc1-c1cc(N[C@H](C)CO)nc(-c2cn[nH]c2)c1 [Example 117] | < 100 | < 100 | < 100 | < 100 | < 100 | < 100
21 | Cc1ccc(NC(=O)c2cc(C(F)(F)F)cnn2)cc1-c1cc(N[C@H](C)CO)nc(-c2cn[nH]c2C)c1 [Example 120] | < 100 | 100 to 500 | < 100 | < 100 | 100 to 500 | 100 to 500
22 | Cc1ccc(NC(=O)c2cc(C(C)(F)F)cnn2)cc1-c1cc(N[C@H](C)CO)nc(-c2cn[nH]c2)c1 [Example 121] | < 100 | < 100 | < 100 | < 100 | 100 to 500 | < 100
23 | Cc1ccc(NC(=O)c2cc(C(F)(F)F)cnn2)cc1-c1cc(N[C@H](C)CO)nc(-c2c(C)n[nH]c2C)c1 [Example 122] | 100 to 500 | 100 to 500 | < 100 | 100 to 500 | 500 to 1000 | 100 to 500
24 | Cc1ccc(NC(=O)c2cc(C(F)(F)F)cnn2)cc1-c1cc(N[C@H](C)CO)cc(-c2cc(NC(=O)C3CC3)ncn2)c1 [Example 123] | 100 to 500 | 100 to 500 | < 100 | < 100 | 100 to 500 | < 100
25 | Cc1ccc(NC(=O)c2cc(C(F)(F)F)cnn2)cc1-c1cncc(-c2cc(NC=O)ncn2)c1 [Example 124] | 100 to 500 | 500 to 1000 | < 100 | < 100 | 500 to 1000 | 500 to 1000
26 | Cc1ccc(NC(=O)c2cc(C(F)(F)F)cnn2)cc1-c1cncc(-c2cc(NC(=O)C(F)(F)F)ncn2)c1 [Example 125] | 500 to 1000 | 500 to 1000 | < 100 | < 100 | 500 to 1000 | 500 to 1000
27 | Cc1ccc(NC(=O)c2cnc(C(F)(F)F)nc2)cc1-c1ccnc(-c2cn[nH]c2)c1 [Example 126] | < 100 | < 100 | 1000 to 10000 | 1000 to 10000 | 100 to 500 | 100 to 500
